The source of these data is patent publication US5017618A, “Labile derivatives of ketone analogs of 3-substituted-1-alkylamino-2-propanols and their use as beta-adrenergic blockers” (priority 1989, dated 1991).

Data set [1] relates to rabbit iris-ciliary body. Description: Reduction of ketone in the iris-ciliary body. It is filed as in vivo. The following applies: 0.5% hydrochloride salt (w/v); 1.0 hour after instillation. The method, then:
It was then shown that reduction of 1-(isopropylamino)-3-(1-naphthyloxy)-2-propanone takes place in the iris-ciliary body. The compound was administered to the rabbit eye in propylene glycol/ethanol/pH=5.9 ophthalmic buffer (25:25:50 mixture, v/v) solution (concentration 0.5% hydrochloride salt, w/v). The iris-ciliary body was removed, extracted and analyzed 1.0 hour after the instillation of the compound, as described in the preceding paragraph.

The next data set has as its system iris-ciliary body. The following applies: topical application to the eye; cited from earlier work.
The subject of data set [2] is rabbit iris-ciliary body. Description: Stereospecificity of enzymatic reduction in iris-ciliary body (chiral derivatization HPLC). The class given is in vivo. The following applies: iris-ciliary body of rabbit treated with the oxime. The text has this:
Finally, it was shown that the enzymatic reduction of the ketone is stereospecific. The extract residue from the iris-ciliary body of rabbit treated with 1-(isopropylamino)-3-(1-naphthyloxy)-2-propranolone oxime was reacted with the chiral reagent, 2,3,4,6-tetra-O-acetyl-β-D-glucoppyranosyl isocyanate, in acetonitrile and analyzed by the HPLC procedure of Sedman et al, J. Chromatogr. 278, 199-203, 1983 (Supelcosil LC-18 reversed-phase column of 7.5 cm×4.6 mm with 3 μm particles, mobile phase: 60% acetonitrile in 0.02M aqueous monobasic ammonium phosphate solution, 1 mL/min flow rate, UV detection at 254 nm).

Data set [3] can be described thus: In vivo distribution-metabolism in ocular tissues of rabbits. Particulars: rabbit, topical or ocular, 1 %, Tissue concentration. The method, then:
(§1) Adult male New Zealand albino rabbits weighing 2.5-3.5 kg were used. Standard doses of 100 μl of 1% solution of the drugs in saline solution were administered topically to both eyes of each rabbit. After appropriate time intervals (30, 60 and 120 minutes), the animals were sacrificed. Aqueous humor was obtained by making a single puncture at the limbus using a 25 g×5/8" needle attached to 1 cm^3 syringe. Then the cornea and the iris-ciliary body were isolated. The tissues were pooled and homogenized using a Tekmar SDT tissuemizer in ice cold perchloric acid (0.05M) which contained 0.05% sodium metabisulfite as antioxidant. Samples were then rehomogenized in CH3 OH to prepare 10% homogenates, transferred to micro-filters and centrifuged for 20 minutes at 10000 r/minute to precipitate proteins. Aqueous humor was analyzed as such without any further dilution. Aliquots of 5-20 μl of the 10% tissue homogenate samples were analyzed by HPLC.

Data set [4] concerns ocular tissues of rabbits. The description is as above. The following applies: for Tissue concentration: after topical propranolone oxime HCl 6a 1%. The procedure:
as §1

Data set [5] can be described thus: In vivo distribution-metabolism in rat's blood.
Method: A group of seven adult male Sprague-Dawley rats weighing 150-250 g was used. […] After 1, 3, 5, 20, 40 and 60 minutes, one mL of blood was withdrawn from the jugular vein and dropped immediately into a tared tube containing 1 mL of ice-cold acetonitrile. The tubes were vigorously shaken, centrifuged, decanted and analyzed for propranolol 1a and propranolone oxime 5a by HPLC. Quantitation was done by using a calibration curve obtained by addition of known amounts of propranolol oxime HCl 6a to blood obtained from a control rat pretreated with saline solution.
A high pressure liquid chromatography (HPLC) method was developed for the assay of the β-blockers and their ketoxime analogs in biological fluids. […] An ASI reverse phase chrompack C18 column, operated at ambient temperature, was used for all separation. The mobile phase used for separation of propranolol 1a and propranolone oxime 5a consisted of water (90 mL), 1-heptanesulfonic acid (1g), 0.1M acetic acid (10 mL), 0.1M triethanolamine (100 mL) and methanol (799 mL).
The conditions of data set [6]: cited from earlier work.

With `CC(C)NCC(=O)COc1cccc2ccccc12` [1-(isopropylamino)-3-(1-naphthyloxy)-2-propanone], the “enzymatic reduction product in iris-ciliary body” value in the data set with rabbit iris-ciliary body [1] was “The enzymatic reduction product, 1-(isopropylamino)-3-(1-naphthyloxy)-2-propanol, i.e. propranolol, was clearly identified”.
Consider `CNCC(=O)c1ccc(O)c(O)c1` [adrenalone], for which the “conversion to adrenaline in the eye” value with iris-ciliary body is recorded as “not adrenalone itself can be converted via a reduction-hydrolysis sequence to deliver adrenaline”.
The half-life is the time needed for the level to fall by half in the phase considered. A higher half-life goes with slow loss. `CC(C)NCC(COc1cccc2ccccc12)=NO` [propranolone oxime 5a, 1-(Isopropylamino)-3-(1-naphthyloxy)-2-propanone oxime]: in the data set on rabbit iris-ciliary body [2], the “stereospecificity: enantiomer of propranolol formed” value is “The sole presence of the S-(-)-enantiomer of 1-(isopropylamino)-3-(1-naphthyloxy)-2-propanol (propranolol) was established”. For the same compound, the concentration at 0.5 h in data set [3] (aqueous humor) came out at 820 ± 90 ng/g; in data set [3] (cornea), 23800 ± 4910 ng/g; in data set [3] (iris-ciliary body) it was 7790 ± 1100 ng/g. Moreover, the values for the concentration at 1 h in data set [3] (aqueous humor) and in data set [3] (cornea) were 800 ± 60 ng/g and 16400 ± 5800 ng/g, respectively. Further, the Tissue concentration in data set [4] (aqueous humor, 120 min.) is reported as 0.00 ± 0.00 mcg/g tissue; in data set [4] (cornea, 120 min.) it was 0.00 ± 0.00 mcg/g tissue; in data set [4] (iris-ciliary body, 60 min.) it was 0.00 ± 0.00 mcg/g tissue; in data set [4] (iris-ciliary body, 120 min.) it was 0.00 ± 0.00 mcg/g tissue. For the same compound, the metabolite in blood entry in data set [5] (after i.v. oxime, disappeared 5 minutes after injection) is reported as “another more polar compound was detected”. Moreover, the half-life in data set [5] (blood, iv, 6 mg/kg) was 7.64 ± 0.55 min. Moreover, in data set [5] (one hour after i.v. administration), the “presence of oxime in blood” value is “completely disappeared from the blood”.
Take `CC(C)(C)NC[C@H](O)COc1nsnc1N1CCOCC1` [timolol]: in data set [6], the “side effects secondary to topical ocular administration” value was “a vast number of serious cardiovascular, respiratory, CNS and ocular side effects”. The “detection of parent β-adrenergic antagonist in eye compartments” value in data set [4] (after ophthalmic 6b, low dose level used) is “could not be found in any of the eye compartments”.
